The results in this text go back to patent US20250034136A1 (Nimbus Wadjet, Inc., priority 2023, published 2025).

Each structure is given as a SMILES string. Where only a bound is given, the exact number is not on record here.

Experiment [1] concerns the target WRN (BV08), human Werner helicase (Uniprot Q14191, amino acids 517-1235 with L1074F point mutation) (Homo sapiens (Human), UniProt Q14191, L1074F). As to the kind of experiment: WRN (BV08) ADP-Glo assay. The format is biochemical. The following applies: class symbols A-E, read-out: ADP-Glo_hWRN_IC50. In general terms: ADP-Glo turns the ADP formed in a reaction into a luminescent signal.

Experiment [2] relates to p21 induction in HCT116 cells. Kind of experiment: p21 induction in HCT116 cells. As to conditions: Homo sapiens, HCT-116, 24 h, HCT116 cells, 24 h compound incubation; read-out: P21_EC50. It is filed as cell-based. The gist of the method: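 HCT116 cells, 2,000/well, treated 24 h at 37 °C with 11-point compound dilutions in duplicate. Fixed, then immunostained for p21 and GAPDH and read by near-IR imaging at 800/700 nm. Normalized to DMSO (low) and reference WRN inhibitor (high) controls; EC50 from non-linear regression.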

Sequence of WRN (BV08), human Werner helicase (Uniprot Q14191, amino acids 517-1235 with L1074F point mutation) (Q14191 other isoform, or with tags, fused parts or gaps L1074F (already in the parent)): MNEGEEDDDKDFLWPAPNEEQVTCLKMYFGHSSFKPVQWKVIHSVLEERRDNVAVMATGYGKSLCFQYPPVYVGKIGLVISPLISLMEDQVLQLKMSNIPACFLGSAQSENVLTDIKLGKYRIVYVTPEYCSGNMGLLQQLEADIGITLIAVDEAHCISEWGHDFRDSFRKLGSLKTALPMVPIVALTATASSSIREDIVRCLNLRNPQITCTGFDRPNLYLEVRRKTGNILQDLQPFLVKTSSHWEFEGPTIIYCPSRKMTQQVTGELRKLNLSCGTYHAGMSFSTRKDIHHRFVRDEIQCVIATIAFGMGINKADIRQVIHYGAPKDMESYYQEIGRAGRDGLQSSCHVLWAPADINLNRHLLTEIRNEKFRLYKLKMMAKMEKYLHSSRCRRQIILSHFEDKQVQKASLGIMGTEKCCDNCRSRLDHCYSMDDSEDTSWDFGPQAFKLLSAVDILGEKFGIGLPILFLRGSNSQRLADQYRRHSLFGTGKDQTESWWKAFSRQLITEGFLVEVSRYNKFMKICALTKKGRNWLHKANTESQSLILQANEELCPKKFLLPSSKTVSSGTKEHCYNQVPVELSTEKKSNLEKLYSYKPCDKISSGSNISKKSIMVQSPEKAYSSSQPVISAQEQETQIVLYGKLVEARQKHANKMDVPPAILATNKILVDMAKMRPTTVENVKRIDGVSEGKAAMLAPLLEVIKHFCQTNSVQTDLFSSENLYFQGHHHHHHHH

In the case of `CCc1c(N2CCN(C(=O)c3c(O)cnnc3OC)[C@H]3CC[C@@H]32)c(=O)c2nc(N(C)C)cnc2n1CC(=O)Nc1ccc(C(F)(F)F)cc1Cl` [I-183, N-[2-chloro-4-(trifluoromethyl)phenyl]-2-[2-(dimethylamino)-6-ethyl-7-[(1S,6S)-5-(5-hydroxy-3-methoxypyridazine-4-carbonyl)-2,5-diazabicyclo[4.2.0]octan-2-yl]-8-oxo-5H,8H-pyrido[2,3-b]pyrazin-5-yl]acetamide], the IC50 in experiment [1] lay in the range of 5 to 50 nM. In experiment [2], the EC50 was more than 5000 nM.

As for `CCc1c(N2CCN(C(=O)c3cnn(C)c3)[C@H]3CC[C@@H]32)c(=O)c2nc(N(C)C)cnc2n1CC(=O)Nc1ccc(C(F)(F)F)cc1Cl` [I-184, N-[2-chloro-4-(trifluoromethyl)phenyl]-2-[2-(dimethylamino)-6-ethyl-7-[(1S,6S)-5-(1-methyl-1H-pyrazole-4-carbonyl)-2,5-diazabicyclo[4.2.0]octan-2-yl]-8-oxo-5H,8H-pyrido[2,3-b]pyrazin-5-yl]acetamide], the IC50 in experiment [1] is 5 to 50 nM. Also, in experiment [2], the EC50 fell in the range of 2000 to 5000 nM.

`CCc1c(N2CCN(C(=O)c3ncnc(C)c3O)C[C@@H]2C)c(=O)c2nc(N(C)C)cnc2n1CC(=O)Nc1ccc(S(F)(F)(F)(F)F)cc1Cl` [I-185, N-[2-chloro-4-(pentafluoro-lambda6-sulfanyl)phenyl]-2-[2-(dimethylamino)-6-ethyl-7-[(2S)-4-(5-hydroxy-6-methylpyrimidine-4-carbonyl)-2-methylpiperazin-1-yl]-8-oxo-5H,8H-pyrido[2,3-b]pyrazin-5-yl]acetamide]: the IC50 in experiment [1] lay in the range of 5 to 50 nM. In addition, the EC50 in experiment [2] is less than 500 nM.

Turning to `CCc1c(N2CCN(C(=O)c3ncnc(C)c3O)CC2)c(=O)c2nc(NCC3CC3)cnc2n1CC(=O)Nc1ccc(C(F)(F)F)cc1Cl` [I-186, N-[2-chloro-4-(trifluoromethyl)phenyl]-2-{2-[(cyclopropylmethyl)amino]-6-ethyl-7-[4-(5-hydroxy-6-methylpyrimidine-4-carbonyl)piperazin-1-yl]-8-oxo-5H,8H-pyrido[2,3-b]pyrazin-5-yl}acetamide], in experiment [1], the IC50 was in the range of 5 to 50 nM. Also, the EC50 in experiment [2] was 2000 to 5000 nM.

Regarding `CCc1c(N2CCN(C(=O)c3ncnc(C)c3O)C[C@@H]2C)c(=O)c2nc(N3CCC3)cnc2n1CC(=O)Nc1ccc(C(F)(F)F)cc1Cl` [I-187, 2-[2-(azetidin-1-yl)-6-ethyl-7-[(2S)-4-(5-hydroxy-6-methylpyrimidine-4-carbonyl)-2-methylpiperazin-1-yl]-8-oxo-5H,8H-pyrido[2,3-b]pyrazin-5-yl]-N-[2-chloro-4-(trifluoromethyl)phenyl]acetamide], the IC50 in experiment [1] fell in the range of 5 to 50 nM. Also, the EC50 in experiment [2] was 500 to 2000 nM.

With `CCc1c(N2CCN(C(=O)c3ncnc(C)c3O)C[C@@H]2C)c(=O)c2nc(N3CC[C@H]3COC)cnc2n1CC(=O)Nc1ccc(C(F)(F)F)cc1Cl` [I-188, N-[2-chloro-4-(trifluoromethyl)phenyl]-2-{6-ethyl-7-[(2S)-4-(5-hydroxy-6-methylpyrimidine-4-carbonyl)-2-methylpiperazin-1-yl]-2-[(2S)-2-(methoxymethyl)azetidin-1-yl]-8-oxo-5H,8H-pyrido[2,3-b]pyrazin-5-yl}acetamide], the IC50 in experiment [1] fell in the range of 5 to 50 nM. In addition, the EC50 in experiment [2] fell in the range of 500 to 2000 nM.

As for `CCc1c(N2CCN(C(=O)c3ncnc(C)c3O)C[C@@H]2C)c(=O)c2nc(N3CC[C@@H]3COC)cnc2n1CC(=O)Nc1ccc(C(F)(F)F)cc1Cl` [I-189, N-[2-chloro-4-(trifluoromethyl)phenyl]-2-{6-ethyl-7-[(2S)-4-(5-hydroxy-6-methylpyrimidine-4-carbonyl)-2-methylpiperazin-1-yl]-2-[(2R)-2-(methoxymethyl)azetidin-1-yl]-8-oxo-5H,8H-pyrido[2,3-b]pyrazin-5-yl}acetamide], the IC50 in experiment [1] lay in the range of 5 to 50 nM. For the same molecule, the EC50 in experiment [2] lay within 500 to 2000 nM.

Regarding `CCc1c(N2CCN(C(=O)c3ncnc(C)c3O)C[C@@H]2C)c(=O)c2nc(N3CCC3)cnc2n1CC(=O)Nc1ccc(S(F)(F)(F)(F)F)cc1Cl` [I-190, 2-[2-(azetidin-1-yl)-6-ethyl-7-[(2S)-4-(5-hydroxy-6-methylpyrimidine-4-carbonyl)-2-methylpiperazin-1-yl]-8-oxo-5H,8H-pyrido[2,3-b]pyrazin-5-yl]-N-[2-chloro-4-(pentafluoro-lambda6-sulfanyl)phenyl]acetamide], in experiment [1], the IC50 is 5 to 50 nM. Moreover, in experiment [2], the EC50 is less than 500 nM.

On to `CCc1c(N2CCN(C(=O)c3ncnc(C)c3O)C[C@@H]2CC)c(=O)c2nc(N(C)C)cnc2n1CC(=O)Nc1ccc(C(F)(F)F)cc1Cl` [I-191, N-[2-chloro-4-(trifluoromethyl)phenyl]-2-[2-(dimethylamino)-6-ethyl-7-[(2S)-2-ethyl-4-(5-hydroxy-6-methylpyrimidine-4-carbonyl)piperazin-1-yl]-8-oxo-5H,8H-pyrido[2,3-b]pyrazin-5-yl]acetamide], for which the IC50 in experiment [1] lay within 5 to 50 nM. In experiment [2], the EC50 lay in the range of 500 to 2000 nM.

With `CCc1c(N2CCN(C(=O)c3ncc4c(c3O)CCO4)CC2)c(=O)c2nc(N(C)C3CC3)cnc2n1CC(=O)Nc1ccc(C(F)(F)F)cc1Cl` [I-194, N-[2-chloro-4-(trifluoromethyl)phenyl]-2-{2-[cyclopropyl(methyl)amino]-6-ethyl-7-(4-{4-hydroxy-2H,3H-furo[2,3-c]pyridine-5-carbonyl}piperazin-1-yl)-8-oxo-5H,8H-pyrido[2,3-b]pyrazin-5-yl}acetamide], in experiment [1], the IC50 is not above 5 nM. Moreover, the EC50 in experiment [2] was less than 500 nM.

As to `CCc1c(N2CCN(C(=O)c3ncnc(C)c3O)CC2)c(=O)c2nc(OC3CC3)cnc2n1CC(=O)Nc1ccc(C(F)(F)F)cc1Cl` [I-195, N-[2-chloro-4-(trifluoromethyl)phenyl]-2-{2-cyclopropoxy-6-ethyl-7-[4-(5-hydroxy-6-methylpyrimidine-4-carbonyl)piperazin-1-yl]-8-oxo-5H,8H-pyrido[2,3-b]pyrazin-5-yl}acetamide], the IC50 in experiment [1] lay in the range of 5 to 50 nM. For the same molecule, the EC50 in experiment [2] fell in the range of 2000 to 5000 nM.

`CCc1c(N2CCN(C(=O)c3ncnc(C)c3O)[C@@H](C(F)F)C2)c(=O)c2nc(N(C)C)cnc2n1CC(=O)Nc1ccc(C(F)(F)F)cc1Cl` [I-197, N-[2-chloro-4-(trifluoromethyl)phenyl]-2-{7-[(3R)-3-(difluoromethyl)-4-(5-hydroxy-6-methylpyrimidine-4-carbonyl)piperazin-1-yl]-2-(dimethylamino)-6-ethyl-8-oxo-5H,8H-pyrido[2,3-b]pyrazin-5-yl}acetamide]: the IC50 in experiment [1] fell in the range of 50 to 100 nM. Moreover, the EC50 in experiment [2] is more than 5000 nM.

Turning to `CCc1c(N2CCN(C(=O)c3ncnc(C)c3O)[C@H]3CC[C@@H]32)c(=O)c2nc(N(C)C)cnc2n1CC(=O)Nc1ccc(OC(F)(F)F)cc1Cl` [I-199, N-[2-chloro-4-(trifluoromethoxy)phenyl]-2-[2-(dimethylamino)-6-ethyl-7-[(1S,6S)-5-(5-hydroxy-6-methylpyrimidine-4-carbonyl)-2,5-diazabicyclo[4.2.0]octan-2-yl]-8-oxo-5H,8H-pyrido[2,3-b]pyrazin-5-yl]acetamide], the IC50 in experiment [1] lay in the range of 5 to 50 nM. Further, the EC50 in experiment [2] was less than 500 nM.

For the molecule `CCc1c(N2CCN(C(=O)c3ncnc(C)c3O)[C@H]3CC[C@@H]32)c(=O)c2nc(N(C)C)cnc2n1CC(=O)Nc1ccc(S(F)(F)(F)(F)F)cc1Cl` [I-200, N-[2-chloro-4-(pentafluoro-lambda6-sulfanyl)phenyl]-2-[2-(dimethylamino)-6-ethyl-7-[(1S,6S)-5-(5-hydroxy-6-methylpyrimidine-4-carbonyl)-2,5-diazabicyclo[4.2.0]octan-2-yl]-8-oxo-5H,8H-pyrido[2,3-b]pyrazin-5-yl]acetamide], in experiment [1], the IC50 fell in the range of 5 to 50 nM. Further, the EC50 in experiment [2] is less than 500 nM.

For `CCc1c(N2CCN(C(=O)c3ncnc(C)c3O)CC2)c(=O)c2nc(-n3cccn3)cnc2n1CC(=O)Nc1ccc(C(F)(F)F)cc1Cl` [I-201, N-[2-chloro-4-(trifluoromethyl)phenyl]-2-{6-ethyl-7-[4-(5-hydroxy-6-methylpyrimidine-4-carbonyl)piperazin-1-yl]-8-oxo-2-(1H-pyrazol-1-yl)-5H,8H-pyrido[2,3-b]pyrazin-5-yl}acetamide], the IC50 in experiment [1] is 5 to 50 nM. In addition, in experiment [2], the EC50 fell in the range of 2000 to 5000 nM.

Regarding `CCc1c(N2CCN(C(=O)c3ncc4c(c3O)OCC4)CC2)c(=O)c2nc(N(C)C3CC3)cnc2n1CC(=O)Nc1ccc(C(F)(F)F)cc1Cl` [I-203, N-[2-chloro-4-(trifluoromethyl)phenyl]-2-{2-[cyclopropyl(methyl)amino]-6-ethyl-7-(4-{7-hydroxy-2H,3H-furo[3,2-c]pyridine-6-carbonyl}piperazin-1-yl)-8-oxo-5H,8H-pyrido[2,3-b]pyrazin-5-yl}acetamide], the IC50 in experiment [1] was not above 5 nM. Moreover, the EC50 in experiment [2] lay in the range of 500 to 2000 nM.

On to `CCc1c(N2CCN(C(=O)c3c(OC)ncc(C)c3O)CC2)c(=O)c2nc(N(C)C)cnc2n1CC(=O)Nc1ccc(C(F)(F)F)cc1Cl` [I-204, N-[2-chloro-4-(trifluoromethyl)phenyl]-2-[2-(dimethylamino)-6-ethyl-7-[4-(4-hydroxy-2-methoxy-5-methylpyridine-3-carbonyl)piperazin-1-yl]-8-oxo-5H,8H-pyrido[2,3-b]pyrazin-5-yl]acetamide], for which the IC50 in experiment [1] lay in the range of 5 to 50 nM. For the same molecule, in experiment [2], the EC50 is less than 500 nM.

`CCc1c(N2CCN(C(=O)c3ncnc(C)c3O)CC2)c(=O)c2nc(N(C)C3(C)CC3)cnc2n1CC(=O)Nc1ccc(C(F)(F)F)cc1Cl` [I-205, N-[2-chloro-4-(trifluoromethyl)phenyl]-2-{6-ethyl-7-[4-(5-hydroxy-6-methylpyrimidine-4-carbonyl)piperazin-1-yl]-2-[methyl(1-methylcyclopropyl)amino]-8-oxo-5H,8H-pyrido[2,3-b]pyrazin-5-yl}acetamide]: the IC50 in experiment [1] was in the range of 5 to 50 nM. In experiment [2], the EC50 was less than 500 nM.
